In patent publication US20130045299A1, “Natural Mold Inhibitor and Methods of Using Same” (priority 2011, published 2013):

What was measured:
[1] = test system: mold; test: Mold-free shelf life of packaged bread, inspected daily (days to mold)
Description: Bread is prepared using the no-time, straight dough method by mixing the following ingredients in a Hobart A200 mixer with a McDuffy attachment for a total of 8 minutes until full gluten development is obtained: flour (100%), water (68%), granulated sugar (7%), shortening (4%), fresh yeast (2.5%), 30% acetic acid vinegar or 300 grain vinegar (0%, 2%, 1% or 0.5%), and citric acid (0% or 0.1%). Mixed dough is rested for 10 minutes on bench then scaled into two 520 gram dough pieces and rounded by hand. Rounded dough is rested 10 minutes then is sheeted and molded into logs. Sheeted and molded logs are placed into oiled bread pans and placed into proof box (National Manufacturing) and set to 110° F. and 80% relative humidity. Dough is proofed to a consistent height, as measured by a template which was 0.75 inches above the rim of the bread pan. Proof time is considered to be time for dough to touch the top of the template minus initial time in the proof box. Proofed dough is then placed into an oven and baked for 20 minutes at a temperature of 420° F. Internal temperature of the bread exiting the oven is 195° F.-200° F. Baked bread is cooled at room temperature on a wire rack for one hour to an internal temperature of between 95° F. and 100° F. After cooling, bread is sliced and packaged in plastic bags and sealed with twist ties. Packaged bread is stored at room temperature 70° F.-75° F. and visually inspected for mold appearance on a daily basis. Bread is considered as expired/failed upon first sign of mold.
Mixed dough is rested for 10 minutes on bench then scaled into two 520 gram dough pieces and rounded by hand. Rounded dough is rested 10 minutes then sheeted and molded into logs. Sheeted and molded logs are placed into oiled bread pans and placed into proof box (National Manufacturing) set to 110° F. and 80% relative humidity. Dough is proofed to a consistent height, as measured by a template which was 0.75 inches above the rim of the bread pan. Proof time is considered to be time for dough to touch the top of the template minus initial time in the proof box. Proofed dough is then placed into an oven and is baked for 20 minutes at a temperature of 420° F. The internal temperature of the bread exiting the oven is 195° F.-200° F. Baked bread is cooled at room temperature on a wire rack for one hour to an internal temperature of between 95° F. and 100° F. After cooling, the bread is sliced and packaged in plastic bags and sealed with twist ties.
Packaged bread is stored at room temperature 70° F.-75° F. Packaged bread is visually inspected for mold appearance on a daily basis. Bread is considered as expired/failed upon first sign of mold.

[2] = pH of baked bread; type: physicochemical

## CCC(=O)[O-].CCC(=O)[O-].[Ca+2] [Calcium Propionate, calcium propionate]
[1]; Table 4, 0.33%
  Days to Mold: 15 days
[1]; Table 4, 0.5%
  Days to Mold: 17 days
[1]; Table 6, white pan bread, 0.33%
  Days to Mold: 14 days
[1]; Table 7, white pan bread, 0.33%
  Days to Mold: 14 days
[1]; Table 8, 0.33% (flour basis)
  Days to Mold: 9 days
[1]; Table 8, 0.50% (flour basis)
  Days to Mold: 12 days
[1]; Table 8, 0.75% (flour basis)
  Days to Mold: 23 days
[1]; Table 8, 1.00% (flour basis)
  Days to Mold: 32 days
[1]; Table 9, White Pan Bread, 0.33%
  Days to Mold: 11 days
[1]; Table 10, White Pan Bread, 0.33%
  Days to Mold: 15 days
[1]; Table 10, 0.50%
  Days to Mold: 17 days
[2]; Table 4, 0.33%
  pH Bread: 5.60
[2]; Table 4, 0.5%
  pH Bread: 5.45
[2]; Table 6, 0.33%
  pH Bread: 5.62
[2]; Table 7, 0.33%
  pH Bread: 5.72
[2]; Table 8, 0.33% (flour basis)
  pH Bread: 5.57
[2]; Table 8, 0.50% (flour basis)
  pH Bread: 5.57
[2]; Table 8, 0.75% (flour basis)
  pH Bread: 5.58
[2]; Table 8, 1.00% (flour basis)
  pH Bread: 5.59
